These results are taken from ChEMBL document CHEMBL1201862, “PubChem BioAssay data set” (2004).

Common to all, as to test: inhibition of tumour cell growth, NCI panel, 48 h
Assay [1] relates to PC-3.
The subject of assay [2] is 786-0.
In assay [3] the test system is UO-31.
Assay [4] has as its system K562.
The subject of assay [5] is COLO 205.
In assay [6] the test system is A549.
Assay [7] deals with HCC 2998.
For assay [8], the system named is KM12.
Assay [9] deals with RXF 393.
For assay [10], the system named is HOP-92.
The subject of assay [11] is DU-145.
Assay [12] concerns NCI-H226.
Assay [13] relates to OVCAR-8.
Assay [14] has as its system OVCAR-4.
The test system of assay [15] is M14.
Assay [16] relates to NCI-H522.
The subject of assay [17] is SK-MEL-28.
Assay [18] has as its system SW-620.

Each structure is given as a SMILES string.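 The compound was tested at five concentrations on cells cultured in 96-well plates, with a 48-hour exposure period. GI50 = concentration required for 50% inhibition of growth.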 Activity calls are given as the source filed them. Rule as the data show it: active = GI50 up to about 1.1 µM and inactive = higher.

As for `CSc1nc(Cl)c2c(n1)Sc1nc3cc4c(cc3n1C2O)OCCO4` (configuration not stated), the GI50 in assay [1] is 0.045 µM (active); in [2], 0.0336 µM (active); in assay [3], 0.112 µM (active); in assay [4], 0.0318 µM (active); in assay [5], 0.0509 µM (active); in assay [6], 0.126 µM (active). The GI50 was 0.318 µM (active) in [7]; 0.06 µM (active) in assay [8]; 0.354 µM (active) in assay [9]; 0.875 µM (active) in [10]; 0.124 µM (active) in [11]; 0.276 µM (active) in assay [12]. Further, the GI50 is 0.106 µM (active) in assay [13]; 14.6 µM (inactive) in assay [14]; 0.0951 µM (active) in assay [15]; 0.0382 µM (active) in [16]; 0.501 µM (active) in assay [17]; 0.0153 µM (active) in [18].
For the compound `CC(C)C1CCC(=O)CC1CCCCC1CC(=O)CC1O[Si](C)(C)C(C)(C)C` (configuration not stated), the GI50 in [1] was 7.53 µM (inactive); in assay [2] it was 3.89 µM (inactive); in [3], 7.66 µM (inactive); in assay [4] it was 2.76 µM (inactive); in assay [5], 4.21 µM (inactive); in assay [6] it was 6.03 µM (inactive). For the same compound, the GI50 was 7.03 µM (inactive) in assay [7]; 2.76 µM (inactive) in assay [8]; 4.67 µM (inactive) in assay [9]; 3.3 µM (inactive) in assay [10]; 17 µM (inactive) in [11]; 3.9 µM (inactive) in assay [12]. Moreover, the GI50 was 3.83 µM (inactive) in [13]; 12.7 µM (inactive) in assay [14]; 6.1 µM (inactive) in assay [15]; 2.1 µM (inactive) in assay [16]; 5.92 µM (inactive) in assay [17]; 4.91 µM (inactive) in assay [18].
Turning to `CN(C)CC1CCC/C(=C\c2ccc(N(C)C)cc2)C1=O` (configuration not stated), the GI50 in assay [1] was 18.2 µM (inactive); in assay [2], 3.34 µM (inactive); in assay [3], 10.4 µM (inactive); in assay [4] it was 28.1 µM (inactive); in assay [5] it was 2.58 µM (inactive); in [6], 17.9 µM (inactive). The GI50 is 15.9 µM (inactive) in [7]; 1.44 µM (inactive) in assay [8]; 8.13 µM (inactive) in [9]; 3.33 µM (inactive) in assay [10]; 17.1 µM (inactive) in [11]; 18.2 µM (inactive) in assay [12]. Besides, the GI50 was 5.45 µM (inactive) in [13]; 2.15 µM (inactive) in assay [14]; 3.55 µM (inactive) in [15]; 1.75 µM (inactive) in assay [16]; 5.64 µM (inactive) in assay [17]; 1.85 µM (inactive) in assay [18].
In the case of `CC(C)=CCC/C(C)=C/Cc1cc(/C=C/c2cc(O)c(CC=C(C)C)c(O)c2)cc(O)c1O` [MAPPAIN], the GI50 in assay [1] was 3.36 µM (inactive); in assay [2], 4.6 µM (inactive); in [3] it was 1.29 µM (inactive); in [4], 2.49 µM (inactive); in assay [5], 17.3 µM (inactive); in assay [6], 4.72 µM (inactive). Moreover, the GI50 in assay [7] was 2.13 µM (inactive); in assay [8], 4.29 µM (inactive); in assay [9], 2.46 µM (inactive); in [10] it was 3.93 µM (inactive); in assay [11], 13.7 µM (inactive); in assay [12], 8.59 µM (inactive). Moreover, the GI50 in [13] was 3.6 µM (inactive); in assay [14] it was 1.94 µM (inactive); in [15] it was 4.26 µM (inactive); in assay [16] it was 0.141 µM (active); in [17], 5.18 µM (inactive); in assay [18] it was 3.54 µM (inactive).
